Experimental data taken from patent US10226536B2, “Polysaccharide therapeutic conjugates” (priority 2011, dated 2019).

Key:
[1] = 9-cis-retinoid concentrations in plasma after gavage; format: in vivo, mouse
Source text: (§1) We designed a polysaccharide therapeutic conjugate composition for the sustained release of 9-cis-retinyl esters to treat animal models of human retinal diseases, such as LCA. […] Unless initial high drug blood levels are unfavorable, this pharmacokinetic property could be beneficial because it relates to the therapeutic window, especially for drugs targeting peripheral tissues such as the retina through protein-mediated and protein-independent transport systems. A bolus dose could also establish a reversible depot of the drug in other tissues, thereby reducing the need for frequent dosing.

[2] = system: Rpe65−/− mice; experiment: Retinoid treatment in LCA mouse model with RPE65 deficiency; format: in vivo
Source text: as §1

[3] = system: Lrat−/− mice; conditions: dark room reared Lrat−/− mice; 6 gavages of 0.12 mg each over two weeks; vs untreated control Lrat−/− mice; cited from earlier work
[4] = system: Lrat−/− mice; experiment: Oral gavage of 9-cis-R-Ac in LCA mouse model with LRAT deficiency; format: in vivo
Source text: as §1

9-cis-retinoid concentrations in plasma ([1]; 5 hours after oral administration) | 9-cis-retinoid concentrations in plasma ([1]; after gavage) | Compound | retinal morphology ([2]; oral gavage, Rpe65−/− mice) | visual function ([2]; oral gavage, Rpe65−/− mice) | ROS layer thickness [3] | RPE-ROS interface [3] | retinal morphology [4] | visual function [4] | visual function ([2]; single dose, Rpe65−/− mice kept under laboratory lighting conditions)
dropped markedly to low levels | increased rapidly to high levels | CC(=O)OC/C=C(C)/C=C/C=C(C)\C=C\C1=C(C)CCCC1(C)C [9-cis-R-Ac, 9-cis-retinyl acetate] | preserves retinal morphology | improves visual function | substantially thicker | closer apposition | preserves retinal morphology | improves visual function | 
 |  | CC1=C(/C=C/C(C)=C\C=C\C(C)=C\C=O)C(C)(C)CCC1 [9-cis-retinal] |  |  |  |  |  |  | rescued visual function for months
